The text below walks through data of publication PMC8550792, “Evolution of kinase polypharmacology across HSP90 drug discovery” (Cell Chemical Biology, 2021).

Molecules are shown by their SMILES.

Common to all, as to assay: biochemical
Common to all, as to type: biochemical

The target in assay [1] is T1, 382 unique human kinases (Homo sapiens, UniProt P41240).
T1 construct: purchased Reaction Biology (HotSpot contract assay)
The note with it: CSK, 10 uM; for remaining activity at 10 µM: read-out: % Enzyme Activity (relative to DMSO controls).

Assay [2] concerns the target T2, 382 unique human kinases (Homo sapiens, UniProt Q16539).
T2 construct: purchased Reaction Biology (HotSpot contract assay)
The note with it: kinase P38a/MAPK14, compound 10 uM; for remaining activity at 10 µM: read-out: % Enzyme Activity (relative to DMSO controls).

The target in assay [3] is T3, 382 unique human kinases (Homo sapiens, UniProt P48730).
T3 construct: purchased Reaction Biology (HotSpot contract assay)
T3 sequence (P48730 whole entry): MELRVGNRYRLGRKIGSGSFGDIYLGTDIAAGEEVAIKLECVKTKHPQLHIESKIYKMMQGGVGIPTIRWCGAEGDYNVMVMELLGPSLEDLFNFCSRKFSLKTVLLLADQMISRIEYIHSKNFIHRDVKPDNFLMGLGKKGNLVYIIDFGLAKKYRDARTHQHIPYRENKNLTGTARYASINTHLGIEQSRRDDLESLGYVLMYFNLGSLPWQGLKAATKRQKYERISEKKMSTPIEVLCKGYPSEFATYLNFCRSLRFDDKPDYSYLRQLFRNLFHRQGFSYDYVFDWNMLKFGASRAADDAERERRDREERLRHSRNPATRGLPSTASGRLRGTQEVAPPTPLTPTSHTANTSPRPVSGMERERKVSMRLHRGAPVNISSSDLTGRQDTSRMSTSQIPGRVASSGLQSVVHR
Conditions: CK1d, 10 uM; for remaining activity at 10 µM: read-out: % Enzyme Activity (relative to DMSO controls).

Assay [4] addresses T4, 382 unique human kinases (Homo sapiens, UniProt P22607, K650M).
T4 construct: purchased Reaction Biology (HotSpot contract assay)
Conditions: FGFR3 (K650M), 10 uM; for remaining activity at 10 µM: read-out: % Enzyme Activity (relative to DMSO controls).

For assay [5], the target named is T5, 382 unique human kinases (Homo sapiens, UniProt P10721, D820Y).
T5 construct: purchased Reaction Biology (HotSpot contract assay)
T5 sequence (P10721 26-976 D820Y): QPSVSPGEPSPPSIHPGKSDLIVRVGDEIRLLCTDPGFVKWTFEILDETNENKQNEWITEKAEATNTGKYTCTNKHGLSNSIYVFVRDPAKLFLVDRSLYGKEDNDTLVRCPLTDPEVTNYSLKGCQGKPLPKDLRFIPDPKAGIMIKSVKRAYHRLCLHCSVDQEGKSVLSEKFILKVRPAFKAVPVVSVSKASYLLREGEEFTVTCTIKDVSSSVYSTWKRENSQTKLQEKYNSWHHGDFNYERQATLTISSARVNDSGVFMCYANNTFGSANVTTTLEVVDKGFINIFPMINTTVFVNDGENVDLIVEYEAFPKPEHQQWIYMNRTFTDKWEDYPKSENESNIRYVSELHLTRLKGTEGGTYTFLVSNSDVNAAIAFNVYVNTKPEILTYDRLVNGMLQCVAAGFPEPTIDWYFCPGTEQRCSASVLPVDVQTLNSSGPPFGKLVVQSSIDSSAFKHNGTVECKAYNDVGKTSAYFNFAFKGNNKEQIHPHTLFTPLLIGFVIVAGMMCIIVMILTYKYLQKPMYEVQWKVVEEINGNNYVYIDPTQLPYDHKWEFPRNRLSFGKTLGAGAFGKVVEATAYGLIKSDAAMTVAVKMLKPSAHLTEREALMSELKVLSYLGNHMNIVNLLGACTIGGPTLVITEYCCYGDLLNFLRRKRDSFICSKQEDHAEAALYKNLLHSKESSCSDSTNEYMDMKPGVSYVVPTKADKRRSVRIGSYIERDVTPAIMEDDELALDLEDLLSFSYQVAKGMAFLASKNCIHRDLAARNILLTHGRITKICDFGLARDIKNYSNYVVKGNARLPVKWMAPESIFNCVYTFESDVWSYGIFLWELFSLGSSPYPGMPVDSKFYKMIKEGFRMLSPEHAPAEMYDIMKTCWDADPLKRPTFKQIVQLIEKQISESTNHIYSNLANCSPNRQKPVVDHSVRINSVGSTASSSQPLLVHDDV
The note with it: c-Kit (D820Y), 10 uM; for remaining activity at 10 µM: read-out: % Enzyme Activity (relative to DMSO controls).

Assay [6] addresses T6, 382 unique human kinases (Homo sapiens, UniProt Q96L34).
T6 construct: purchased Reaction Biology (HotSpot contract assay)
T6 sequence (Q96L34 1-752): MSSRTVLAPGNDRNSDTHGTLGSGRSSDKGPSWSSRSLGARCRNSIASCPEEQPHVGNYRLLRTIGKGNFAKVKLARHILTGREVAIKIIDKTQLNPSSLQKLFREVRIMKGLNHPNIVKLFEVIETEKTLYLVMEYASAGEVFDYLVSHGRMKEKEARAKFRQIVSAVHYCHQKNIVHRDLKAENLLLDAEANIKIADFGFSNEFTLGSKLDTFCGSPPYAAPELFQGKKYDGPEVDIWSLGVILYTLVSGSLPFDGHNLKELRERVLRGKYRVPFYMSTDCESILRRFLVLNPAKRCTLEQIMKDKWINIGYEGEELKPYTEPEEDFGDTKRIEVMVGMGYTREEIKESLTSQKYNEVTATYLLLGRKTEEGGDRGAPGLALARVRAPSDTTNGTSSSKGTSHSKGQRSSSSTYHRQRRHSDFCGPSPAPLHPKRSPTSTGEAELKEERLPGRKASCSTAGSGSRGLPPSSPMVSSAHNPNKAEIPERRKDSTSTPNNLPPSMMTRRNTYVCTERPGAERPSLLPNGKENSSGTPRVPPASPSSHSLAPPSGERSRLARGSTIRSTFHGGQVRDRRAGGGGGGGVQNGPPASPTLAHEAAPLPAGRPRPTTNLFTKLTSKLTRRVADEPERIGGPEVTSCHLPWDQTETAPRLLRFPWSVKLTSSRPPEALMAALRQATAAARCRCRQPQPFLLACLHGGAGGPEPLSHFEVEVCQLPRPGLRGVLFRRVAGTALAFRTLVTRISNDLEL
Conditions: kinase MARK4, compound 10 uM; for remaining activity at 10 µM: read-out: % Enzyme Activity (relative to DMSO controls).

The target in assay [7] is T7, 382 unique human kinases (Homo sapiens, UniProt Q15208).
T7 construct: purchased Reaction Biology (HotSpot contract assay)
T7 sequence (Q15208 whole entry): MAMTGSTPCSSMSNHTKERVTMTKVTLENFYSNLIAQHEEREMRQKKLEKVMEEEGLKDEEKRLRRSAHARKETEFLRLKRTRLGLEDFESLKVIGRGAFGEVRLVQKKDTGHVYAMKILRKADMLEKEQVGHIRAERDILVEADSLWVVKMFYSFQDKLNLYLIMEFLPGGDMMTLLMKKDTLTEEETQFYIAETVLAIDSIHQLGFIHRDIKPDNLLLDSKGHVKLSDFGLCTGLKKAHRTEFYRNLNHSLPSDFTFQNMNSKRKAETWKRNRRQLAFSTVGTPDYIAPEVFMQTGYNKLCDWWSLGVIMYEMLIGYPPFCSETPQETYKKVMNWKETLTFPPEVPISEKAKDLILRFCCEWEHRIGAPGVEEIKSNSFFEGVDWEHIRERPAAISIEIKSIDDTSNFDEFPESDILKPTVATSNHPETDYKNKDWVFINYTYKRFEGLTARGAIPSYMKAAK
The note with it: STK38/NDR1, 10 uM; for remaining activity at 10 µM: read-out: % Enzyme Activity (relative to DMSO controls).

The target of assay [8] is T8, 382 unique human kinases (Homo sapiens, UniProt P10721, D816F).
T8 construct: purchased Reaction Biology (HotSpot contract assay)
T8 sequence (P10721 26-976 D816F): as the sequence (P10721 26-976 D820Y) above, with D791F, Y795D counted along it
The note with it: c-Kit (D816F), [ATP] 20 µM, compound 10 uM; for remaining activity at 10 µM: read-out: % Enzyme Activity (relative to DMSO controls).

Assay [9] has as its target T9, 382 unique human kinases (Homo sapiens, UniProt O15111).
T9 construct: purchased Reaction Biology (HotSpot contract assay)
T9 sequence (O15111 1-745): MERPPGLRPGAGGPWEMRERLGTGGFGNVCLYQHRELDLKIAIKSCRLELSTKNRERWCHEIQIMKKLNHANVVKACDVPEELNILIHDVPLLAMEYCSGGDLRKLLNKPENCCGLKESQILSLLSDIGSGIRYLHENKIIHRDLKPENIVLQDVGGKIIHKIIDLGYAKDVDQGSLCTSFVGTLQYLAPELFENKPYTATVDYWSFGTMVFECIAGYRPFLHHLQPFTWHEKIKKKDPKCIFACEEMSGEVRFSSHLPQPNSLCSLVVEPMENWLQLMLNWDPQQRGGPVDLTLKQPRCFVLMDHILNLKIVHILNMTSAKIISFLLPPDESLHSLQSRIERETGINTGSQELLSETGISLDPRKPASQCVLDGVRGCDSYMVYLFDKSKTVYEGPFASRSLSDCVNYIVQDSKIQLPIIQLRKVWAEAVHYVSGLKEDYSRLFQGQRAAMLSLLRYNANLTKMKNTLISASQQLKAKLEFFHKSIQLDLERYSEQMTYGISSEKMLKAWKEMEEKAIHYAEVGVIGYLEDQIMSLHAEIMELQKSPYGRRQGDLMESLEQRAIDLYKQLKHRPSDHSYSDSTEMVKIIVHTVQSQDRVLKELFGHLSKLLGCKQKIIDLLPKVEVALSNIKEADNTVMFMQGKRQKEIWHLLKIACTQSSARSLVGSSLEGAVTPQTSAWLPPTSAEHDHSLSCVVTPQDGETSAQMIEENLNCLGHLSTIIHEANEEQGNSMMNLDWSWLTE
The note with it: IKKa/CHUK, 10 uM; for remaining activity at 10 µM: read-out: % Enzyme Activity (relative to DMSO controls).

Assay [10] deals with T10, 382 unique human kinases (Homo sapiens, UniProt O15530).
T10 construct: purchased Reaction Biology (HotSpot contract assay)
T10 sequence (O15530 1-556): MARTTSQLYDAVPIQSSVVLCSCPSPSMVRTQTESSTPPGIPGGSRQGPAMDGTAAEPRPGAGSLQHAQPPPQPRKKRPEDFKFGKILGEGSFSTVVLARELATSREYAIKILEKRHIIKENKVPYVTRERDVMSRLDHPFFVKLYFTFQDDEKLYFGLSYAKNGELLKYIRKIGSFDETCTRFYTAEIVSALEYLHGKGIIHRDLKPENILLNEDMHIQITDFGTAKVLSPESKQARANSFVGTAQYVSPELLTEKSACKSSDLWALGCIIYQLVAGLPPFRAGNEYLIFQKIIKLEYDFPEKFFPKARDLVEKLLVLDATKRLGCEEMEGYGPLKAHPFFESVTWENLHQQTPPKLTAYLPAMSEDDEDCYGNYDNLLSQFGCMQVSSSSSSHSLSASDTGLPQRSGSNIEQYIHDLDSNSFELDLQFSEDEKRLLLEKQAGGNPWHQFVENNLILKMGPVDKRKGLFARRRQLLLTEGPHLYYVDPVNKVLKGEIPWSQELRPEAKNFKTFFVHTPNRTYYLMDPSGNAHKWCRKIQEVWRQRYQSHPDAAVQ
Conditions: PDK1/PDPK1, 10 uM; for remaining activity at 10 µM: read-out: % Enzyme Activity (relative to DMSO controls).

T1 sequence (P41240 whole entry): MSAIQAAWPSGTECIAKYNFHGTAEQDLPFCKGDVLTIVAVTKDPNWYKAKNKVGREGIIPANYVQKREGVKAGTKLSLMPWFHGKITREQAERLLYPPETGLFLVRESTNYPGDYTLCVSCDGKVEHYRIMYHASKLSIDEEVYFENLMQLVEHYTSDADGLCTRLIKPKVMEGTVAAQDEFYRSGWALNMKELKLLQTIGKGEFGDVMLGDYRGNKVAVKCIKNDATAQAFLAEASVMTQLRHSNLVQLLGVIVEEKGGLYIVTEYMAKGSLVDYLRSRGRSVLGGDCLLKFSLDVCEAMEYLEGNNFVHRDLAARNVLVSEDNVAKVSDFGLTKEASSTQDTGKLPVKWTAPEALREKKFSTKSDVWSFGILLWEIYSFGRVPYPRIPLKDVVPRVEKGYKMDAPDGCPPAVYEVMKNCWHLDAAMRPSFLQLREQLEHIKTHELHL
T2 sequence (Q16539 whole entry): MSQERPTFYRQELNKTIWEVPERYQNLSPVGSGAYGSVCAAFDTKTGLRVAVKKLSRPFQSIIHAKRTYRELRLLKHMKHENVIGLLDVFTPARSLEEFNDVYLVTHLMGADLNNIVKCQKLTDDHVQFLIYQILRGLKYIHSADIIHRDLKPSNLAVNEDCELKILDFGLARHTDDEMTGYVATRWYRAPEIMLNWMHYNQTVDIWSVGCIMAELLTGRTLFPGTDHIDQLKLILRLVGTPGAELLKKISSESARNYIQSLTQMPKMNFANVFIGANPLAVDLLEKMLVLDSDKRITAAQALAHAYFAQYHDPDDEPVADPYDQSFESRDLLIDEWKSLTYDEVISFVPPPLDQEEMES
T4 sequence (P22607 23-806 K650M): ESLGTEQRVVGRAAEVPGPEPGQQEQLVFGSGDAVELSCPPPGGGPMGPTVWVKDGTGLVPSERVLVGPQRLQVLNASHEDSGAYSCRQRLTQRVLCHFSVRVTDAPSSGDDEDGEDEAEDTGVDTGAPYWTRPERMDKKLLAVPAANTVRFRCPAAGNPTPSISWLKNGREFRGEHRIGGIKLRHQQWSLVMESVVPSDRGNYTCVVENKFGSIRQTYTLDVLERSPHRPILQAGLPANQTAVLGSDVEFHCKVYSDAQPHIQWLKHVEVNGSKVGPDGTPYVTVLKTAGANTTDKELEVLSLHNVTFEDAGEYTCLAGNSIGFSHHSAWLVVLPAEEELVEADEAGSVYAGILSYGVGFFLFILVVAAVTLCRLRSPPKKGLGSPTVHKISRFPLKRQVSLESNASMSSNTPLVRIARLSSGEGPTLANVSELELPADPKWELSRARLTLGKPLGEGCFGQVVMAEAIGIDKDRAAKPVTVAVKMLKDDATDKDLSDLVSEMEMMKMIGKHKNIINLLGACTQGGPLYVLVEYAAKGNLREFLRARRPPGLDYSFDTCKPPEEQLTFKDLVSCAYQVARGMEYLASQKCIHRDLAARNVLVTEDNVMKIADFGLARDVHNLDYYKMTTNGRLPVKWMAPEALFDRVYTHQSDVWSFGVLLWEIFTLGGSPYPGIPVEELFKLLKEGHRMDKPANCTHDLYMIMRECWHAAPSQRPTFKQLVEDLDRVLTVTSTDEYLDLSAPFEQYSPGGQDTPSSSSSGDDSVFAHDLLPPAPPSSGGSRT

As for `CC(C)c1cc(-c2n[nH]c(=O)n2-c2ccc3c(ccn3C)c2)c(O)cc1O` [Ganetespib (STA9090)], the remaining activity at 10 µM was found to be 70.3% on 382 unique human kinases [1]; 89.6% at 382 unique human kinases [2]; 81.2% on 382 unique human kinases [3]; 86.5% on 382 unique human kinases [4]; 62.7% at 382 unique human kinases [5]; 91% at 382 unique human kinases [6].
On to `CC(C)c1cc(-c2n[nH]c(=O)n2-c2ccc3c(ccn3C)c2)c(O)cc1O` [Ganetespib], for which the remaining activity at 10 µM at 382 unique human kinases [7] was 95.7%; on 382 unique human kinases [8], 31%; on 382 unique human kinases [9], 103%; on 382 unique human kinases [10] it was 99.4%.
Turning to `CCNC(=O)c1noc(-c2cc(C(C)C)c(O)cc2O)c1-c1ccc(CN2CCOCC2)cc1` [Luminespib (AUY-922)], the “% Enzyme Activity (relative to DMSO controls)” value on 382 unique human kinases [1] was determined as 73.41%; at 382 unique human kinases [2] it was 90.33%; on 382 unique human kinases [3], 81.12%; at 382 unique human kinases [4], 70.76%; at 382 unique human kinases [5] it was 70.30%; at 382 unique human kinases [6], 95.99%. Also, the remaining activity at 10 µM on 382 unique human kinases [1] worked out at 74.1%; on 382 unique human kinases [2], 95.1%; at 382 unique human kinases [3], 83.5%; at 382 unique human kinases [4], 78.7%; on 382 unique human kinases [5], 71.4%; at 382 unique human kinases [6] it was 97.1%.
As for `CCNC(=O)c1noc(-c2cc(C(C)C)c(O)cc2O)c1-c1ccc(CN2CCOCC2)cc1` [Luminespib], the “% Enzyme Activity (relative to DMSO controls)” value on 382 unique human kinases [7] came to 98.10%; on 382 unique human kinases [8], 70.41%; at 382 unique human kinases [9], 93.54%; at 382 unique human kinases [10], 101.64%. The remaining activity at 10 µM on 382 unique human kinases [7] was found to be 99%; at 382 unique human kinases [8] it was 70.9%; at 382 unique human kinases [9] it was 94.7%; on 382 unique human kinases [10], 102%.
